Counter-ions that a name gives are not always drawn.
Legend:
PARP-1 enzyme = PARP-1 enzyme (Homo sapiens (Human), UniProt P09874); test: Poly(ADP-ribose)polymerase [PARP-1] enzyme inhibitory activity (Trevigen PARP Assay kit); assay type: biochemical; conditions: read-out: PARP-1 Inhibitory activity IC50
Procedure, shortened: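 On histone-coated plates, PARP-1 (0.12 unit/well) reacted with compound for 30 min at 25 °C in a 2× cocktail of 1.95 mM NAD+, 50 μM biotinylated NAD+ and activated DNA (Tris pH 8.0, 25 mM MgCl2). Biotin-ribosylated histone was detected with streptavidin-HRP and TACS-Sapphire substrate, stopped with HCl and read at 450 nm.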

A549 cell line = test: Cell growth inhibition of cancer cell lines (SRB assay), A549; assay type: cell-based
Procedure: (§1) The tests on cell growth inhibitory activity were performed with respect to A549 (US, ATCC), SK-OV-3 (Korea Research Institute of Chemical Technology; KRICT), HT-29 (US, ATCC), MCF-7 cell (US, ATCC), using Sulforhodamin-B <SRB> Assay (1989, US National Cancer Institute (NCI)) which was developed to measure the in vitro anti-cancer activity of the drug. […] The samples of the compounds of the Examples according to the present invention were used for the tests, and before the tests, the samples were dissolved in dimethylsulfoxide and diluted with the culture medium (RPMI 1640) to be used. The final concentration of the sample was varied in the range of 0.3˜100 μM. After the culture medium was removed from the 96 well plates, the diluted sample solution was added by 100 μl, and cultured in 37° C., 5% CO2 culture medium for 72 hours. The time zero (Tz) plates were collected at the time point of adding the sample. Upon completing the culture, the medium was removed from each well along with Tz plate, then cold 10% trichloroacetic acid (TCA) was added by 100 μl per well. The wells were left at 4° C. for 1 hour, so that the cells were fixed into the bottom of the plates. After the cells were fixed, the plates were rinsed with water five to six times to remove the remaining trichloroacetic acid solution, and moisture was completely dried at room temperature. The cells were dyed for 30 minutes by adding the dye solution in which 0.4% sulforhodamine-B was dissolved in 1% acetic acid solution, by 100 μl per dried wells. The above was rinsed again with 1% acetic acid solution five to six times to ensure that sulforhodamine-B which had not attached to the cells was removed. The plates were again dried at room temperature. 100 μl of 10 mM tris-buffer was then added to dissolve the dye, and the optical density (OD) at 520 nm was measured with the microplate reader. GI50 of the sample regarding cancer cell was calculated as explained below. Time zero (Tz), control value (C) and test value (T) were obtained, in which Tz corresponds to OD value of time at which the sample is applied and culture is started, C corresponds to OD value of the well which is cultured without treatment with the sample, and T corresponds to OD value of the well which is treated with the sample and then cultured. The degree of cell growth inhibition of the sample was measured using: If […] [Mathematical Formula 1]
(§2) Further, the ability of Examples 2, 42, 49, 52, 72, 74, 101 to increase growth inhibition effect of temozolomide and SN-38 at 2 μM was determined.

SK-OV-3 Cell line = test: Cell growth inhibition of cancer cell lines (SRB assay), SK-OV-3; assay type: cell-based
Procedure: as §1, §2

Chain of PARP-1 enzyme (P09874 whole entry): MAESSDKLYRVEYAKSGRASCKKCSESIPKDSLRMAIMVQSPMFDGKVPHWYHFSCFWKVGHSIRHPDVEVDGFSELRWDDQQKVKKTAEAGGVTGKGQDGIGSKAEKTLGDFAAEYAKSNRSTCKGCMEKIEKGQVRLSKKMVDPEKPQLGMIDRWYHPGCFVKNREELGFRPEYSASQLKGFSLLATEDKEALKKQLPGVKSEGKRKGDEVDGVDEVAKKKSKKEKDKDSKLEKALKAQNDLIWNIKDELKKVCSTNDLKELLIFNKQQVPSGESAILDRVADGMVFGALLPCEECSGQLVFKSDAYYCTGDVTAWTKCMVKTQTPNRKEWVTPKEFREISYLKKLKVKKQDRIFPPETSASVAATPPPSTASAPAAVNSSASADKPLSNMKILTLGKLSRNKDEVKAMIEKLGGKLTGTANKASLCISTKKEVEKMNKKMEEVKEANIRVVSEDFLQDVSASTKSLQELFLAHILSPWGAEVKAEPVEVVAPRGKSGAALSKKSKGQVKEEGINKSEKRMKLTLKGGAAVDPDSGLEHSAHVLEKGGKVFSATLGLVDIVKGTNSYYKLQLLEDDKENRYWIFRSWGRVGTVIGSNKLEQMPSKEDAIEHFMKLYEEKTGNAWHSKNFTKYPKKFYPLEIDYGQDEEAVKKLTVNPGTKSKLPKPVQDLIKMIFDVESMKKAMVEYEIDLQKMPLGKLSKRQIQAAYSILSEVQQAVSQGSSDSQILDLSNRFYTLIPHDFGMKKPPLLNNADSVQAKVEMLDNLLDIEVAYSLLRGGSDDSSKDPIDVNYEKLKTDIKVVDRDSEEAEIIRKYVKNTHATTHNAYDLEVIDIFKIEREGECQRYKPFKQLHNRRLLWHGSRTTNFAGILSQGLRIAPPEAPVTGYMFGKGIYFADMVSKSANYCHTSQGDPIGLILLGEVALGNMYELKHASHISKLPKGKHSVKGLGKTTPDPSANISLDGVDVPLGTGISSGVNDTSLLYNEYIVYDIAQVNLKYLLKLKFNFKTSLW

SMILES: COc1cc(CN2CCOCC2)cc2[nH]c(=O)c3c(c12)NCCC3 [Example 74, 10-Methoxy-8-(morpholinomethyl)-1,2,3,4-tetrahydrobenzo[h][1,6]naphthyridine-5(6H)-one dihydrochloride]
- IC50 (PARP-1 enzyme): 0.23 µM
- SN-38 PF50 (A549 cell line; 2 μM compound, GI50 SN-38 alone / GI50 with compound): 2.2
- Temozolomide PF50 (A549 cell line; 2 μM compound, GI50 temozolomide alone / GI50 with compound): 3.2
- GI50 (A549 cell line; Homo sapiens, 72 hours): 75 µM
- SN-38 PF50 (SK-OV-3 Cell line; 2 μM compound): 2.2
- Temozolomide PF50 (SK-OV-3 Cell line; 2 μM compound): >5.0
- GI50 (SK-OV-3 Cell line; Homo sapiens, 72 hours): 52 µM
